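Grown in 96-well plates, cells were treated for 48 hours with each compound at five concentrations. Insufficient inhibition: endpoint recorded as highest concentration tested. GI50: concentration for 50% inhibition of growth. The concentration for full growth arrest is given as TGI.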
How the values were obtained:
Assay in all cases: inhibition of tumour cell growth, NCI panel, 48 h
M14 melanoma = test system: M14 melanoma
TK-10 renal = test system: TK-10 renal
OVCAR-3 ovarian = test system: OVCAR-3 ovarian
PC-3 prostate = test system: PC-3 prostate
SN12C renal = test system: SN12C renal
A549 NSCLC = test system: A549 NSCLC
CAKI-1 renal = test system: CAKI-1 renal
786-0 renal = test system: 786-0 renal
MALME-3M melanoma = test system: MALME-3M melanoma
SK-OV-3 ovarian = test system: SK-OV-3 ovarian

Compound	GI50 (M14 melanoma)	GI50 (TK-10 renal)	TGI (TK-10 renal)	GI50 (OVCAR-3 ovarian)	TGI (OVCAR-3 ovarian)	GI50 (PC-3 prostate)	TGI (PC-3 prostate)	GI50 (SN12C renal)	TGI (SN12C renal)	GI50 (A549 NSCLC)	TGI (A549 NSCLC)	GI50 (CAKI-1 renal)	TGI (CAKI-1 renal)	GI50 (786-0 renal)	GI50 (MALME-3M melanoma)	TGI (MALME-3M melanoma)	GI50 (SK-OV-3 ovarian)	TGI (SK-OV-3 ovarian)	TGI (M14 melanoma)	TGI (786-0 renal)
O=C(/C=C/c1cccc(O)c1)c1cccc(-n2cc(-c3ccccc3)[nH]c2=O)c1	2.89 µM	2.43 µM	6.89 µM	2.58 µM	6.19 µM	2.82 µM	11.1 µM	3.01 µM	11.3 µM	6.39 µM	21.8 µM	4.95 µM	10.5 µM	2.36 µM	3.53 µM	10.9 µM	12.3 µM	25 µM		
Oc1c(I)cc(I)c2cccnc12	5.27 µM	1.68 µM	20.2 µM	2.42 µM	6.5 µM	4.68 µM	> 100 µM	6.67 µM	45.5 µM	5.67 µM	> 100 µM	3.17 µM	14.2 µM	7.14 µM	0.573 µM	27.6 µM	5.17 µM	29.2 µM	23.7 µM	25.4 µM
c1ccc2cc(-c3n(Cc4ccc5ccccc5n4)c4ccccc4[n+]3Cc3ccc4ccccc4n3)ccc2c1	0.307 µM	0.413 µM	1.83 µM	0.314 µM	1.39 µM	0.184 µM	1.12 µM	0.298 µM	1.11 µM	0.349 µM	1.51 µM	0.655 µM	2 µM	0.392 µM	0.379 µM	1.69 µM	0.268 µM	0.912 µM	1.53 µM	1.72 µM
OCCNC1c2cc(Cl)ccc2-c2c(Cl)cc(Cl)cc21 (configuration not stated)			> 100 µM		80 µM		77.3 µM		86.3 µM		> 100 µM		> 100 µM			> 100 µM		> 100 µM	> 100 µM	> 100 µM
OC(C#Cc1ccccc1)(c1ccccc1)c1ccccc1			77.4 µM		85.3 µM		> 100 µM		> 100 µM		52.9 µM		61.8 µM			60.2 µM		> 100 µM	> 100 µM	> 100 µM
COC1=C(OC)C(=O)C(SC/C=C(\C)CCCC(C)CCCC(C)CCCC(C)C)=CC1=O (configuration not stated)	0.743 µM	2.46 µM	> 59.4 µM	0.857 µM	> 100 µM	0.255 µM	> 100 µM	0.741 µM	> 100 µM	2.83 µM	> 100 µM	6.64 µM	> 37 µM	11.2 µM	0.513 µM		2.47 µM	> 91.6 µM	> 100 µM	> 100 µM
N#CC1=C(/N=C/c2ccccc2)Oc2c(ccc3ccccc23)C1c1ccccc1 (configuration not stated)	0.484 µM	13.7 µM	> 100 µM	0.341 µM	2.3 µM	0.477 µM	> 100 µM	0.822 µM	> 100 µM	0.95 µM	> 100 µM	0.31 µM	> 53.7 µM	0.546 µM	0.67 µM	> 100 µM	0.534 µM	> 100 µM	> 100 µM	> 100 µM
C[N+](C)(C)CC1CCCC1=O (configuration not stated)			6.76 µM		6.87 µM		2.91 µM		5.56 µM		35.7 µM		6.61 µM			1.61 µM		30.4 µM	2.61 µM	5.32 µM
O=C(O)Cc1cccnc1			> 100 µM		> 100 µM		> 100 µM		> 100 µM		> 100 µM		> 100 µM			> 100 µM		> 100 µM	> 100 µM	> 100 µM
CC(C)(O)CNc1nc(Nc2ccnc(C(F)(F)F)c2)nc(-c2cccc(C(F)(F)F)n2)n1	16.1 µM	26.6 µM	82.4 µM	20.1 µM	52 µM	27.4 µM	> 100 µM	19.1 µM	54.4 µM	19.5 µM	39.4 µM	29.6 µM	> 100 µM	18.6 µM	21.1 µM	43.3 µM	26.6 µM	68.3 µM	34.6 µM	78.5 µM
CSc1nc2sc3c(c2c(=O)n1-c1ccc(C(C)C)cc1)CCC(=O)C3	2.82 µM	2.58 µM	6.53 µM	1.94 µM	3.53 µM	1.6 µM	3.21 µM	2.45 µM	6.02 µM	3.77 µM	20.7 µM	2.38 µM	6.03 µM	3.06 µM	3.11 µM	8.25 µM	2.63 µM	6.92 µM	7.6 µM	9.79 µM
Nc1nc(Nc2ccccc2SSc2ccccc2Nc2nc(N)nc(C(Cl)(Cl)Cl)n2)nc(C(Cl)(Cl)Cl)n1	9.13 µM	4.85 µM	17.2 µM	10.4 µM	33.8 µM	3.56 µM	18.6 µM	2.46 µM	7.26 µM	2.95 µM	10.8 µM	3.01 µM	10.5 µM	7 µM	5.9 µM	18.6 µM	26.4 µM	91.3 µM	22.9 µM	19.9 µM
Cc1cc(C#Cc2ccc(C(C)(C)C)cc2)ccc1-n1c(/C=C/c2ccc(O)cc2O)nc2ccccc2c1=O	5.91 µM	3.82 µM	12.8 µM	3.23 µM	12.5 µM	3.67 µM	16.2 µM	1.88 µM	4.13 µM	2.83 µM	11.1 µM	2.87 µM	16.2 µM	5.08 µM	8.42 µM	23.2 µM	10.9 µM	30.6 µM	25.6 µM	17.9 µM
C#CCNC(=O)[C@H](CC)[C@H]1CC[C@H](C)[C@H]([C@@H](C)[C@H](O)[C@H](C)C(=O)[C@H](CC)C2O[C@]3(C=CC(=O)[C@]4(CC[C@@](C)([C@H]5CC[C@](O)(CC)[C@H](C)O5)O4)O3)[C@H](C)C[C@@H]2C)O1 (some centres not stated)	1.86 µM	2.35 µM	7.74 µM	1.86 µM	3.98 µM	2 µM	8.78 µM	2.29 µM	6.58 µM	2.61 µM	11.2 µM	1.78 µM	7.02 µM	2.67 µM	2.05 µM	6.15 µM	3.42 µM	> 100 µM	4.57 µM	8.19 µM
